Experimental data as given in the kinase profiling compilation of Christmann-Franck et al. (2016).

Tests used:
Experiment in all cases: radiometric filter-binding kinase assay, Kinase HotSpot
Details in all cases: compound 0.5 µM; ATP 10 µM
[1] = biological target: ABL1 (human) (UniProt P00519)
[2] = biological target: ADRBK2 (human) (UniProt P35626)
[3] = biological target: CAMK2D (human) (UniProt Q13557)
[4] = biological target: CLK1 (human) (UniProt P49759)
[5] = biological target: CLK3 (human) (UniProt P49761)
[6] = biological target: EPHA8 (human) (UniProt P29322)
Chain of EPHA8 (human) (P29322 whole entry, looked up): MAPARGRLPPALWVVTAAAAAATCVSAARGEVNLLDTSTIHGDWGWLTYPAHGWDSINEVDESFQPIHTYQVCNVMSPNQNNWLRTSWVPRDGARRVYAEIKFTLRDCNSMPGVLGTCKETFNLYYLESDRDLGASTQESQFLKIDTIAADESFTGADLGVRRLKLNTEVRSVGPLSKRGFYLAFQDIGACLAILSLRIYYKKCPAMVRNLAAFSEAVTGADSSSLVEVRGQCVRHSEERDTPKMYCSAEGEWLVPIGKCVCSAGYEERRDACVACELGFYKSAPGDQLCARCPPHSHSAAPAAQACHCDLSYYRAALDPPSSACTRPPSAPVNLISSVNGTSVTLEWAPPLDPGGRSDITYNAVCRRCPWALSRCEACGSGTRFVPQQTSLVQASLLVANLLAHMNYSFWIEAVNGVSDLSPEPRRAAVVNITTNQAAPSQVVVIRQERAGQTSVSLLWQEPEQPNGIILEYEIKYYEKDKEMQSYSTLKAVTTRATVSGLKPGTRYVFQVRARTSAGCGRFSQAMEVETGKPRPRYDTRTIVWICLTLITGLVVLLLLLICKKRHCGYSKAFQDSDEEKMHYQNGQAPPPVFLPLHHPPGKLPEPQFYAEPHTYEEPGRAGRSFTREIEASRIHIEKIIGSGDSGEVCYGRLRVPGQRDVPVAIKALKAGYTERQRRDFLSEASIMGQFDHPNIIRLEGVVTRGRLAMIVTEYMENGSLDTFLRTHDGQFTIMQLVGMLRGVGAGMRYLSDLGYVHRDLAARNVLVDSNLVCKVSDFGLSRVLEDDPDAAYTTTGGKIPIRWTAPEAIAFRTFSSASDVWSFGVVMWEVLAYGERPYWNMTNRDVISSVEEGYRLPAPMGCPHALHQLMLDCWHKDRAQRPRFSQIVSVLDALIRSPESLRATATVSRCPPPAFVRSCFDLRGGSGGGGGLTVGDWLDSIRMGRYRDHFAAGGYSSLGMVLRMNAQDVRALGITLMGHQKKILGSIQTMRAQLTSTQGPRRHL

[7] = biological target: EPHB1 (human) (UniProt P54762)
Chain of EPHB1 (human) (P54762 whole entry, looked up): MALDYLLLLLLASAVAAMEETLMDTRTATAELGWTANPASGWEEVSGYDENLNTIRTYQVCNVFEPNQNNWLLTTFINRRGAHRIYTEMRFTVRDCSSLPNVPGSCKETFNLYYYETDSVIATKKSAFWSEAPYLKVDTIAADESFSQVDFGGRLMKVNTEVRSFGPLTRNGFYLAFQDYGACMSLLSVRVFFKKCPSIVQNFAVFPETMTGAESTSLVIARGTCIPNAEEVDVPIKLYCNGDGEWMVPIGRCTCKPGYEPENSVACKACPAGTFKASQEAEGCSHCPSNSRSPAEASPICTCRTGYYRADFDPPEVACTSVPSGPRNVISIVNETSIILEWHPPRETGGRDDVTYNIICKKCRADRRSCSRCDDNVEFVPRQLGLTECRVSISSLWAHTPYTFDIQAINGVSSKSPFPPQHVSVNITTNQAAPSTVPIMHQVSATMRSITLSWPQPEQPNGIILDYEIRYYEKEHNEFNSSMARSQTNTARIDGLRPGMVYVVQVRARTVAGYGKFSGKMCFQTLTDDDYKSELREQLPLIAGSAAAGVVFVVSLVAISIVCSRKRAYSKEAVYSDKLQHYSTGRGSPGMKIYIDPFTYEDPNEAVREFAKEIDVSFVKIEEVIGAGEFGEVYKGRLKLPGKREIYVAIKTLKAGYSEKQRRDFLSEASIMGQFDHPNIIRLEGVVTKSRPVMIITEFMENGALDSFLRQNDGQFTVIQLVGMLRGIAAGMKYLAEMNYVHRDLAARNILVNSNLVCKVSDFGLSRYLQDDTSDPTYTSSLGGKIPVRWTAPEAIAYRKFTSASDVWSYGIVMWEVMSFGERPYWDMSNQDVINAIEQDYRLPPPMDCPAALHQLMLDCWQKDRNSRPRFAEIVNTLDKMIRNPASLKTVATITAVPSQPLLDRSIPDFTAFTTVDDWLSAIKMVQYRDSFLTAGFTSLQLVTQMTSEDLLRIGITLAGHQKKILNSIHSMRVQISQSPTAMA

[8] = biological target: EPHB2 (human) (UniProt P29323)
[9] = biological target: ERBB2 (human) (UniProt P04626)
[10] = biological target: GRK5 (human) (UniProt P34947)
[11] = biological target: GRK7 (human) (UniProt Q8WTQ7)
[12] = biological target: INSRR (human) (UniProt P14616)
[13] = biological target: ITK (human) (UniProt Q08881)
[14] = biological target: LCK (human) (UniProt P06239)
[15] = biological target: LTK (human) (UniProt P29376)
[16] = biological target: MAP2K1 (human) (UniProt Q02750)
[17] = biological target: MAPKAPK5 (human) (UniProt Q8IW41)
[18] = biological target: MARK1 (human) (UniProt Q9P0L2)
[19] = biological target: MST1R (human) (UniProt Q04912)
[20] = biological target: NEK11 (human) (UniProt Q8NG66)
Chain of NEK11 (human) (Q8NG66 whole entry, looked up): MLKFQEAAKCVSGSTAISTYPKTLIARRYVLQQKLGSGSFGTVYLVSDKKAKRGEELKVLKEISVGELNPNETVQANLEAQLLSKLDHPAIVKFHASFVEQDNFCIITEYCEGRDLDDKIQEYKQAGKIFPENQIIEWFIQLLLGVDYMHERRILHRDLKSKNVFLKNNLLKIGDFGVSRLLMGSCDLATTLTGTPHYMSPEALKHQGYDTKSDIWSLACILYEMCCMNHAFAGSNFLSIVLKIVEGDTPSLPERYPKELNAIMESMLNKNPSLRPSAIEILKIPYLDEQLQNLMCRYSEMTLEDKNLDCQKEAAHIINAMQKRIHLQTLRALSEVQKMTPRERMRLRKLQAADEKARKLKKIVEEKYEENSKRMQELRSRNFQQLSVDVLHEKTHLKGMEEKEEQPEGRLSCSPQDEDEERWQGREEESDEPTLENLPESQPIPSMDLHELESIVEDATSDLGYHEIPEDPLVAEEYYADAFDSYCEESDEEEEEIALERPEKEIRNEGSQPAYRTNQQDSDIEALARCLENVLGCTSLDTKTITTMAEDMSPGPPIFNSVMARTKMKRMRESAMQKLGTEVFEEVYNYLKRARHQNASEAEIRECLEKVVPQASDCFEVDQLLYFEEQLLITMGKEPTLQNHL

[21] = biological target: NEK3 (human) (UniProt P51956)
[22] = biological target: NEK7 (human) (UniProt Q8TDX7)
[23] = biological target: NTRK1 (human) (UniProt P04629)
[24] = biological target: PAK4 (human) (UniProt O96013)
[25] = biological target: PASK (human) (UniProt Q96RG2)
[26] = biological target: PHKG1 (human) (UniProt Q16816)
[27] = biological target: PLK2 (human) (UniProt Q9NYY3)
[28] = biological target: PRKCB2 (human) (UniProt P05771)
[29] = biological target: PRKD1 (human) (UniProt Q15139)
[30] = biological target: PRKD2 (human) (UniProt Q9BZL6)
[31] = biological target: PRKX (human) (UniProt P51817)
Chain of PRKX (human) (P51817 whole entry, looked up): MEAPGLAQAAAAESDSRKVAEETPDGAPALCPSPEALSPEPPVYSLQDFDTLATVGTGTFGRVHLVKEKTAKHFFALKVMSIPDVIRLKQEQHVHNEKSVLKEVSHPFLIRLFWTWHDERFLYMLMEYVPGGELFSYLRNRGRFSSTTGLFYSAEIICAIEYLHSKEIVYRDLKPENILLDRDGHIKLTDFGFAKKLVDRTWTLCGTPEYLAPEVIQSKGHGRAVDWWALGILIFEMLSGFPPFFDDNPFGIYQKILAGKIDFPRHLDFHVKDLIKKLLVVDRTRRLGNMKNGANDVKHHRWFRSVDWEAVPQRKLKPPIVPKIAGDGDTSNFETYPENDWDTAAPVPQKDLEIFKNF

[32] = biological target: ROCK2 (human) (UniProt O75116)
[33] = biological target: RPS6KA3 KD1 KD2 (human) (UniProt P51812)
Chain of RPS6KA3 KD1 KD2 (human) (P51812 whole entry, looked up): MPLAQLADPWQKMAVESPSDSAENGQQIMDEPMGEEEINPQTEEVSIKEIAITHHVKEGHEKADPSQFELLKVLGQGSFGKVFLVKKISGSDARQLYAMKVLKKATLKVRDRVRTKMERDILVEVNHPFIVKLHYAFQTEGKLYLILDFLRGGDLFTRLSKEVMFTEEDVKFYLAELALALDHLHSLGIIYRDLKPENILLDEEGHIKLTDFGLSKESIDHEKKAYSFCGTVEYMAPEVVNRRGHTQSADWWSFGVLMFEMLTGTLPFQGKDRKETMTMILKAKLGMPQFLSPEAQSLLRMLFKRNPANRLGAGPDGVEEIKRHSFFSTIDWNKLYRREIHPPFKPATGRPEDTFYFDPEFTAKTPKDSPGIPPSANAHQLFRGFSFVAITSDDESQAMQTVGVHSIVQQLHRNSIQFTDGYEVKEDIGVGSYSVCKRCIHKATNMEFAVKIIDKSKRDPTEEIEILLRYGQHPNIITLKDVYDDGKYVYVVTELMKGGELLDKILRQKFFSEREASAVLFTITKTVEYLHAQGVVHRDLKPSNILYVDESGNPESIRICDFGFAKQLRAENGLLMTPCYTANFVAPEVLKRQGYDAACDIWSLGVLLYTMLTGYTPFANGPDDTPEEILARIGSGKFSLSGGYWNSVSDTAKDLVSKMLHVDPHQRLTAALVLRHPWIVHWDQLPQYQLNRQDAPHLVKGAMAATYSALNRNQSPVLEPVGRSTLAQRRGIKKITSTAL

[34] = biological target: RPS6KB1 (human) (UniProt P23443)
Chain of RPS6KB1 (human) (P23443 whole entry, looked up): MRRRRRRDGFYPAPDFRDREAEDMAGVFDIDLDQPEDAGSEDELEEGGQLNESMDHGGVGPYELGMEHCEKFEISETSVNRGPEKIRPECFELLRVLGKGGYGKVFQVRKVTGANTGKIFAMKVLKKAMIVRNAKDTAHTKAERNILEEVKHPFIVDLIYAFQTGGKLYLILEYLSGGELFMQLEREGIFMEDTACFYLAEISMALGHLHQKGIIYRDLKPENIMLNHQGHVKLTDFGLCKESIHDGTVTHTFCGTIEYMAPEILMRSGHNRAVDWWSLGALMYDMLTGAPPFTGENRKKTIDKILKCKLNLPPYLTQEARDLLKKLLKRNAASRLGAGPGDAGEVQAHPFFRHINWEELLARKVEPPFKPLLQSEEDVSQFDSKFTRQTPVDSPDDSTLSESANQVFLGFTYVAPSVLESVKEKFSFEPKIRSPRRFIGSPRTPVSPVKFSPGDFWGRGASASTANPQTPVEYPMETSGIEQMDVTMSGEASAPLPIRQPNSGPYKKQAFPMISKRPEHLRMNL

[35] = biological target: SGK3 (human) (UniProt Q96BR1)
Chain of SGK3 (human) (Q96BR1 whole entry, looked up): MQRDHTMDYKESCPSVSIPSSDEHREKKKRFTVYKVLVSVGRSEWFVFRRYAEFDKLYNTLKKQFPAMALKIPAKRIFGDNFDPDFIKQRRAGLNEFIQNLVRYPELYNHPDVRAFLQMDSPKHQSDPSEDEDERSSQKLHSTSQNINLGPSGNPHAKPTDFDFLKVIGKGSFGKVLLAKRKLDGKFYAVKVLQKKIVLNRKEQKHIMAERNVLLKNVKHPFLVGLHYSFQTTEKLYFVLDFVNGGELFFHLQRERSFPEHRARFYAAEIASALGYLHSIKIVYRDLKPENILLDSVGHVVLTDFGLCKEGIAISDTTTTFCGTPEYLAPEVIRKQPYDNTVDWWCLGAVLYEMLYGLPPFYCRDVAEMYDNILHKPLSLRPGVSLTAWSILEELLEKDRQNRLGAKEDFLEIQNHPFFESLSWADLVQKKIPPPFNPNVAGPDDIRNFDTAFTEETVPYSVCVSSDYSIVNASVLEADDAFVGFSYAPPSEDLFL

[36] = biological target: SRPK3 (human) (UniProt Q9UPE1)
[37] = biological target: STK4 (human) (UniProt Q13043)
[38] = biological target: TAOK1 (human) (UniProt Q7L7X3)
[39] = biological target: TEK (human) (UniProt Q02763)
[40] = biological target: TTK (human) (UniProt P33981)
[41] = biological target: TYRO3 (human) (UniProt Q06418)
[42] = biological target: PDPK1 (human) (UniProt O15530)

## CN(C)S(=O)(=O)c1ccc2c(c1)/C(=C/c1cc3c([nH]1)CCCC3)C(=O)N2
[1]
  residual activity: 57.3%
[2]
  residual activity: 97%
[3]
  residual activity: 73.2%
[4]
  residual activity: 82.6%
[5]
  residual activity: 92.9%
[6]
  residual activity: 100%
[7]
  residual activity: 82.8%
[8]
  residual activity: 98.4%
[9]
  residual activity: 101%
[10]
  residual activity: 95.3%
[11]
  residual activity: 82.3%
[12]
  residual activity: 93.3%
[13]
  residual activity: 61.2%
[14]
  residual activity: 34.7%
[15]
  residual activity: 52.7%
[16]
  residual activity: 88.7%
[17]
  residual activity: 99.8%
[18]
  residual activity: 54.6%
[19]
  residual activity: 101%
[20]
  residual activity: 82.5%
[21]
  residual activity: 98.2%
[22]
  residual activity: 103%
[23]
  residual activity: 24.7%
[24]
  residual activity: 97.6%
[25]
  residual activity: 95.6%
[26]
  residual activity: 72.4%
[27]
  residual activity: 94.4%
[28]
  residual activity: 92%
[29]
  residual activity: 102%
[30]
  residual activity: 102%
[31]
  residual activity: 98.1%
[32]
  residual activity: 88.2%
[33]
  residual activity: 70.1%
[34]
  residual activity: 96.5%
[35]
  residual activity: 98.1%
[36]
  residual activity: 67.2%
[37]
  residual activity: 13.1%
[38]
  residual activity: 85.8%
[39]
  residual activity: 95.4%
[40]
  residual activity: 89.7%
[41]
  residual activity: 57.2%

## CS(=O)(=O)CCNCc1ccc(-c2ccc3ncnc(Nc4ccc(OCc5cccc(F)c5)c(Cl)c4)c3c2)o1
[1]
  residual activity: 96.4%
[2]
  residual activity: 96.7%
[3]
  residual activity: 92.5%
[4]
  residual activity: 107%
[5]
  residual activity: 107%
[6]
  residual activity: 99.5%
[7]
  residual activity: 104%
[8]
  residual activity: 101%
[10]
  residual activity: 97.2%
[11]
  residual activity: 95.8%
[12]
  residual activity: 104%
[13]
  residual activity: 98.3%
[14]
  residual activity: 94.2%
[15]
  residual activity: 100%
[16]
  residual activity: 105%
[17]
  residual activity: 92.8%
[18]
  residual activity: 149%
[19]
  residual activity: 92.2%
[20]
  residual activity: 107%
[21]
  residual activity: 99.6%
[22]
  residual activity: 98.7%
[23]
  residual activity: 99.2%
[24]
  residual activity: 89.9%
[25]
  residual activity: 101%
[42]
  residual activity: 86.4%
[26]
  residual activity: 95.7%
[27]
  residual activity: 103%
[28]
  residual activity: 99.8%
[29]
  residual activity: 99.4%
[30]
  residual activity: 86.4%
[31]
  residual activity: 111%
[32]
  residual activity: 92.7%
[33]
  residual activity: 105%
[34]
  residual activity: 95.7%
[35]
  residual activity: 102%
[36]
  residual activity: 104%
[37]
  residual activity: 99.4%
[38]
  residual activity: 98.8%
[39]
  residual activity: 93.2%
[40]
  residual activity: 102%
[41]
  residual activity: 98.9%

## Fc1ccc(-c2nc3n(c2-c2ccncc2)CCS3)cc1
[1]
  residual activity: 102%
[2]
  residual activity: 95%
[3]
  residual activity: 97.1%
[4]
  residual activity: 103%
[5]
  residual activity: 94.4%
[6]
  residual activity: 88.2%
[7]
  residual activity: 106%
[8]
  residual activity: 99.3%
[9]
  residual activity: 105%
[10]
  residual activity: 103%
[11]
  residual activity: 104%
[12]
  residual activity: 102%
[13]
  residual activity: 97.5%
[14]
  residual activity: 96.2%
[15]
  residual activity: 102%
[16]
  residual activity: 93.6%
[17]
  residual activity: 97.2%
[18]
  residual activity: 102%
[19]
  residual activity: 97.3%
[20]
  residual activity: 71.4%
[21]
  residual activity: 96.9%
[22]
  residual activity: 105%
[23]
  residual activity: 99.5%
[24]
  residual activity: 99.1%
[25]
  residual activity: 109%
[42]
  residual activity: 109%
[26]
  residual activity: 94.6%
[27]
  residual activity: 103%
[28]
  residual activity: 87.2%
[29]
  residual activity: 90.2%
[30]
  residual activity: 94.7%
[31]
  residual activity: 97.6%
[32]
  residual activity: 99.1%
[33]
  residual activity: 107%
[34]
  residual activity: 108%
[35]
  residual activity: 95.8%
[36]
  residual activity: 98.5%
[38]
  residual activity: 97.7%
[39]
  residual activity: 95.6%
[40]
  residual activity: 100%
[41]
  residual activity: 104%

## Cc1cncc2cccc(S(=O)(=O)N3CCCN(C(=O)CN)C[C@H]3C)c12
[1]
  residual activity: 99.3%
[2]
  residual activity: 95%
[3]
  residual activity: 108%
[4]
  residual activity: 104%
[5]
  residual activity: 95.9%
[6]
  residual activity: 95%
[7]
  residual activity: 88.7%
[9]
  residual activity: 99.7%
[10]
  residual activity: 97.1%
[11]
  residual activity: 88.8%
[12]
  residual activity: 103%
[13]
  residual activity: 97.2%
[14]
  residual activity: 97%
[15]
  residual activity: 93%
[16]
  residual activity: 94.9%
[17]
  residual activity: 94.2%
[18]
  residual activity: 89.7%
[19]
  residual activity: 99.3%
[20]
  residual activity: 84.2%
[21]
  residual activity: 91.1%
[22]
  residual activity: 103%
[23]
  residual activity: 100%
[24]
  residual activity: 99.5%
[25]
  residual activity: 105%
[42]
  residual activity: 97.8%
[26]
  residual activity: 65.3%
[27]
  residual activity: 101%
[28]
  residual activity: 91.3%
[29]
  residual activity: 96.7%
[30]
  residual activity: 96%
[31]
  residual activity: 54.2%
[32]
  residual activity: 3.22%
[33]
  residual activity: 91.8%
[34]
  residual activity: 93.3%
[35]
  residual activity: 96%
[36]
  residual activity: 99.9%
[37]
  residual activity: 95.4%
[38]
  residual activity: 84.2%
[39]
  residual activity: 98.6%
[40]
  residual activity: 111%
[41]
  residual activity: 98.9%
